Test results: patent publication US5591756A, “LTB4 synthesis inhibitors” (G. D. Searle & Co., priority 1995, dated 1997)
pIC50: −log10 of the molar value.

Legend:
[1] = molecular target: T1, Human synovial fluid phospholipase A2 (HSF-PLA2) (Homo sapiens, UniProt P14555); test: Human synovial fluid phospholipase A2 (HSF-PLA2) assay; format: biochemical; settings: [14C]-oleate-labeled E. coli substrate, pH 7.0, 5 min pre-incubation, 37° C., 30 minutes
T1 construct: Human synovial fluid phospholipase A2 was purified approximately 5000 fold; from tissue; host or cells: human synovial fluid (enzyme purified about 5000 fold)
T1 sequence (P14555 21-144): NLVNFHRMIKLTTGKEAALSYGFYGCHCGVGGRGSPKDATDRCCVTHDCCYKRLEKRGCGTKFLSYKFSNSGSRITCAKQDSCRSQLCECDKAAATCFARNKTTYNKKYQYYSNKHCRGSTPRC
Method: Human synovial fluid phospholipase A2 was purified approximately 5000 fold following the procedures of Franson et al., Lung 160, 275-284 (1982) and Fawzy et al., Bio Phys. J. 49, 533a (1986). Following purification the enzyme activity was measured by established methodology using [^14 C]-oleate-labeled, autoclaved E. coli as the substrate as also shown in the above noted references. The assay was performed in a final volume of 100 μl containing 50 mM HEPES (pH 7.0), 150 mM NaCl, 5 mM CaCl2, 7 nM [^14 C]-oleate-labeled E. coli phospholipid and with or without the compound from one of the examples herein undergoing an assay. The compound or control vehicle was pre-incubated with the PLA2 for 5 minutes followed by addition of the E. coli substrate to initiate the reaction. The reaction was maintained at 37° C. for 30 minutes and then terminated by the addition of 2 ml tetrahydrofuran (THF). The reaction product, [^14 C]-oleic acid, was extracted using a 1 ml Bond Elut-NH2 Solid phase extraction column. The IC50 value for the compound (mean±S.E.) is given in the following Table and represents the concentration of the compound required to inhibit 50% of the PLA2 activity.

[2] = system: LTB4 Biosynthesis, HL-60 cells; test: Assay for LTB4 (and PGE2) production by HL-60 cells; format: cell-based; settings: Homo sapiens; differentiated HL-60 cells, 10 min pre-incubation 37° C., stimulated with 5×10^-6 M calcium ionophore A23187, radioimmunoassay; read-out: LTB4 Biosynthesis inhibition cells IC50, HL60 Cells
Method: HL-60 cells were induced to differentiate into granulocytes by a 4 day incubation with 0.8% (v/v) N,N-dimethyl formamide as disclosed in Fontana et al., Proc. Natl. Acad. Sci. 78. (6): 3863-3866 (1981); Agins et al., Biochem. Biophys. Res. Comm. 126, 143-149 (1985); and Bonser et al., Biochemistry 20: 5297-5301 (1981). Prior to performing the assay, differentiated HL-60 cells were washed once with Hanks' balanced salt solution containing 0.35 mg/ml sodium bicarbonate and 10 mM HEPES pH 7.35 (HBSS). HL-60 cells (3×10^6 cells/ml) were pre-incubated with the compound tested or a control vehicle at 37° C. for 10 minutes, followed by 5 minute incubation with 5×10^-6 M calcium ionophore A23187 in a final volume of 1.0 ml. After incubation, the cells were pelleted by centrifugation and the LTB4 and PGE2 in the supernatent were quantified by radioimmunoassay. IC50 values (means±S.E.) for compounds herein that were tested are shown in the following Table and represent the concentrations of the compound required to inhibit 50% of LTB4 or PGE2 production by HL-60 cells stimulated with the calcium ionophore A23187.

[3] = system: LTB4 Biosynthesis, Human PMNs; test: LTB4 biosynthesis inhibition in human PMNs; format: cell-based; settings: read-out: LTB4 Biosynthesis inhibition cells IC50, Human PMNs

SMILES	pIC50 [1]	pIC50 [2]	pIC50 [3]
CCCCCCCCCCCCCC(=O)CC(=O)c1ccc(C(=O)O)cc1 [Example 4, 4-(1,3-dioxohexadecanyl)benzoic acid]	4.05		
CCCCCCCCCCCCCC(=O)CC(=O)c1cccc(C(=O)O)c1 [Example 5, 3-(1,3-dioxohexadecanyl)benzoic acid]	5.77	5.82	5.92
CCCCCCCCCCCCCC(=O)CC(=O)c1ccc(C(=O)O)o1 [Example 9, 5-(1,3-dioxohexadecanyl)-2-furancarboxylic acid]	5.57	5.33	5.46
CCCCCCCCCCCCCC(=O)CC(=O)c1ccc(C(=O)O)s1 [Example 15, 5-(1,3-dioxohexadecyl)-2-thiophenecarboxylic acid]	5.72		5.57
CCCCCCCCCCCCCC(=O)CC(=O)c1cccc(-c2nnn[nH]2)c1 [Example 19, 1-[3-(1H-tetrazol-5-yl)phenyl]-1,3-hexadecadione]	4.32		5.52
O=C(CCCCCCCCCOc1ccccc1)CC(=O)c1ccc(C(=O)O)cc1 [Example 22, 4-(1,3-dioxo-12-phenoxydodecyl)benzoic acid]	4.80		5.57
